Measurements as given in patent publication US7700101B2, “Reagents and method for modulating Dkk-mediated interactions” (Wyeth, priority 2001, dated 2010).

Experiments:
[1] = system: canonical Wnt pathway; assay: Xenopus embryo assay, hDkk-1 dose-response (enlarged anterior structures); assay type: in vivo; details: 250 pg/embryo hDkk-1 RNA; FIG. 10
Description: (§1) mRNA for microinjection into Xenopus embryos is generated by in vitro transcription using the CDNA constructs in the pCS2^+ vector described above as template. RNA is synthesized using the Ambion mMessage mMachine high yield capped RNA transcription kit (Cat. #1340) following the manufacturer's specifications for the Sp6 polymerase reactions. RNA products were brought up to a final volume of 50 μl in sterile, glass-distilled water and purified over Quick Spin-Columns for Radiolabelled RNA Purification G50-Sephadex (Roche, Cat. #1274015) following the manufacturer's specifications. The resulting eluate was finally extracted with phenol:chloroform:isoamyl alcohol and isopropanol precipitated using standard protocols (Sambrook et al., 1989). Final RNA volumes were approximately 50 μl. RNA concentration was determined by absorbance values at 260 nm and 280 nm. RNA integrity was visualized by ethidium bromide staining of denaturing (formaldehyde) agarose gel electrophoresis (Sambrook et al., 1989). Various amounts of RNA (2 pg to 1 ng) are injected into the ventral blastomere of the 4- or 8-cell Xenopus embryo. These protocols are described in Moon et al., Technique-J. of Methods in Cell and Mol. Biol. 1: 76-89 (1989), and Peng, Meth. Cell. Biol. 36: 657-62 (1991). […]

[2] = system: Zmax/LRP5-mediated Wnt signaling; assay: Xenopus embryo assay, hDkk-1 modulation of Zmax/LRP5+Wnt5a signaling; assay type: in vivo; details: hDkk-1 250 pg, FIG. 11
Description: as §1

[3] = system: HBM-mediated Wnt signaling; assay: Xenopus embryo assay, hDkk-1 modulation of HBM+Wnt5a signaling; assay type: in vivo; details: hDkk-1 250 pg, FIG. 11
Description: as §1

[4] = system: LRP5 LBD; assay: Yeast-2 hybrid interaction trap LRP5 LBD-LexA / Gal4AD-Dkk; assay type: binding; details: LRP5LBD-LexA bait and Gal4AD-Dkk prey
Sequence of LRP5 LBD (as listed by the source): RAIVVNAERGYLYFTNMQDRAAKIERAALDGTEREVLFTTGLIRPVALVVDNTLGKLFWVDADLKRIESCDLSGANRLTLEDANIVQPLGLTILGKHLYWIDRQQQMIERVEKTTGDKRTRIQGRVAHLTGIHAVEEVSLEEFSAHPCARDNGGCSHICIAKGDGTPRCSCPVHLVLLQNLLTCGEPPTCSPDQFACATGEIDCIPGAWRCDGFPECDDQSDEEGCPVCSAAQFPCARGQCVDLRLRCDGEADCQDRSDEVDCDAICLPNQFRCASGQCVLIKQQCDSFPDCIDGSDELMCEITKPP
Source text: Small molecule inhibitors (or partial inhibitors) of the Dkk-LRP interaction may be an excellent osteogenic therapeutic. One way to investigate this important protein-protein interaction is using Y2H techniques substantially as described above and as is well known in the art. […] This interaction is quantitated using a reporter element known in the art, e.g., LacZ or luciferase, which is only activated when bait and prey interact. The Y2H assay is used to screen for compounds which modulate the LRP-Dkk interaction. Such a modulation would be visualized by a reduction in reporter element activation signifying a weaker or disrupted interaction, or by an enhancement of the reporter element activation signifying a stronger interaction. Thus, the Y2H assay can be used as a high-throughput screening technique to identify compounds which disrupt or enhance Dkk interaction with LRP5/LRP6/HBM, which may serve as potential therapeutics.
For example, the Interaction Trap methodology can be used as follows. […] With the LRP5LBD-LexA bait and the Gal4AD-Dkk prey, over a 20-fold activation of a lacZ reporter (under the control of a single LexA operator) was detected over the background. […] As a result, small molecules may be identified that modulate this interaction between LRP and Dkk.

[5] = biological target: T1, LRP5 (Homo sapiens, UniProt O75197); assay: Cell-based TCF reporter high-throughput assay, LRP5 cDNA; details: U2OS cells, Wnt1 or Wnt3a/Wnt1 co-transfected, FIG. 20
T1 construct: Site-directed mutants of LRP5 were generated in the full-length human LRP5 cDNA; expressed in transfected cells; host or cells: HOB-03-CE6 osteoblastic cells; U2OS osteosarcoma cells; HEK293
T1 sequence (O75197 32-1615): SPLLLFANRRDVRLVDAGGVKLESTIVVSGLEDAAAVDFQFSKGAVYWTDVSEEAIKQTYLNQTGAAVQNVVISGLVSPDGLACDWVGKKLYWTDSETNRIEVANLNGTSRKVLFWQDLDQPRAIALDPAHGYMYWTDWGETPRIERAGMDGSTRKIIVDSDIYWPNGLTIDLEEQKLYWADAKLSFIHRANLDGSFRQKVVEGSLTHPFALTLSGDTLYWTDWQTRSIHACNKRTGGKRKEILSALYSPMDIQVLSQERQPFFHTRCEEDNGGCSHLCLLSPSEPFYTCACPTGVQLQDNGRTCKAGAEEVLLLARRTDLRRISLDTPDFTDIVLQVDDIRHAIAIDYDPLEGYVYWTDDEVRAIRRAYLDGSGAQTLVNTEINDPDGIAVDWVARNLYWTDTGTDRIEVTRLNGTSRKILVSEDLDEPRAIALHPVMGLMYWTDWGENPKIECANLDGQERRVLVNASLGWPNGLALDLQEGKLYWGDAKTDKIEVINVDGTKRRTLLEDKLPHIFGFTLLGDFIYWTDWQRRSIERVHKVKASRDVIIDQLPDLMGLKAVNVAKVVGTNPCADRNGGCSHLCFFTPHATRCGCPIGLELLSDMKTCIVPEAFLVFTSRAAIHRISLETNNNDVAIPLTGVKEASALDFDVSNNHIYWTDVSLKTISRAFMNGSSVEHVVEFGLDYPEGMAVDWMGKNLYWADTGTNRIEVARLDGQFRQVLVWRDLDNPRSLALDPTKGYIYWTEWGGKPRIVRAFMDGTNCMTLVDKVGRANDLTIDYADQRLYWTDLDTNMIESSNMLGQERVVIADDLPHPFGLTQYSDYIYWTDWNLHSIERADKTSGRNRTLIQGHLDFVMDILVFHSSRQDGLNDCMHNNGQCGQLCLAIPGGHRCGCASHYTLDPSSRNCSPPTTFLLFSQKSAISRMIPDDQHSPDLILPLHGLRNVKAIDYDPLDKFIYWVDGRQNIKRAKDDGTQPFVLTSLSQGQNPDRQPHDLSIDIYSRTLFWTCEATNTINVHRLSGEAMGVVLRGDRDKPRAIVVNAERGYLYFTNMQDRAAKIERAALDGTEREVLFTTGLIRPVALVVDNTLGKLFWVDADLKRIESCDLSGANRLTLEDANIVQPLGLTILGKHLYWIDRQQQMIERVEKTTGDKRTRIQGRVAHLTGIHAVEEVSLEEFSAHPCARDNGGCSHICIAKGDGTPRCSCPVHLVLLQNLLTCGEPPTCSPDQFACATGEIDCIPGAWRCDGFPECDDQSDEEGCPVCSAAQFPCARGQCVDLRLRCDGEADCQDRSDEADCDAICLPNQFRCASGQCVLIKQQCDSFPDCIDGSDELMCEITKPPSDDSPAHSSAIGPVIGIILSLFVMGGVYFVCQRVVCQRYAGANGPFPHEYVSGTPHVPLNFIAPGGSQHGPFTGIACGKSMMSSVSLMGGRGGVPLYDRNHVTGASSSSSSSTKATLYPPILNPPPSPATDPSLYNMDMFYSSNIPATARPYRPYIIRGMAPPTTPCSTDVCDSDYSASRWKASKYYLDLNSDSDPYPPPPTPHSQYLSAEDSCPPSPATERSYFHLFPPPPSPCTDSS
Source text: (§2) To develop a high throughput assay, the TCF-luciferase assay described in Example 7 was modified utilizing low level expression of endogenous LRP5/6 in U2OS and HEK293 cells. However, HOB-03-CE6 cells and any other cells which show a differential response to Dkk depending on whether LRP5, LRP6 or HBM are expressed. Using U2OS (human osteosarcoma) and HEK293 (ATCC) cells, the TCF-luciferase and tk-Renilla reporter element constructs were co-transfected along with Wnt3a/1 and Dkk. Wnt3a alone, by using endogenous LRP5/6, was able to stimulate TCF reporter gene activation. When Dkk, is co-transfected with Wnt3a/Wnt 1 and reporters (TCF-luci and tk-Renilla), DEkk represses reporter element activity. In addition, the TCF-luci signal is activated by Wnt3a/Wnt1 can be repressed by the addition of Dkk-enriched conditioned media to the cells containing Wnt3a/Wnt1 and reporters.
(§3) The Dkk-mediated repression of the reporter is dependent upon the concentration of transfected Dkk cDNA or on the amount of Dkk-conditioned media added. In addition, the Dkk-mediated reporter suppression can be altered by the co-transfection of LRP5, LRP6, and HBM cDNAs in the U2OS or HEK293 cells. In general, U2OS cells show greater sensitivity to Dkk-mediated reporter suppression than that in HEK-293 cells. […]

[6] = biological target: LRP6 (Homo sapiens, UniProt O75581); assay: Cell-based TCF reporter high-throughput assay, LRP6 cDNA; set-up: Full length LRP6 was isolated from the pED6dpc4 vector; expressed in transfected cells; host or cells: HOB-03-CE6 osteoblastic cells; U2OS osteosarcoma cells; HEK293; details: U2OS cells, Wnt1 or Wnt3a/Wnt1 co-transfected, FIG. 20
Sequence of LRP6 (O75581 20-1613): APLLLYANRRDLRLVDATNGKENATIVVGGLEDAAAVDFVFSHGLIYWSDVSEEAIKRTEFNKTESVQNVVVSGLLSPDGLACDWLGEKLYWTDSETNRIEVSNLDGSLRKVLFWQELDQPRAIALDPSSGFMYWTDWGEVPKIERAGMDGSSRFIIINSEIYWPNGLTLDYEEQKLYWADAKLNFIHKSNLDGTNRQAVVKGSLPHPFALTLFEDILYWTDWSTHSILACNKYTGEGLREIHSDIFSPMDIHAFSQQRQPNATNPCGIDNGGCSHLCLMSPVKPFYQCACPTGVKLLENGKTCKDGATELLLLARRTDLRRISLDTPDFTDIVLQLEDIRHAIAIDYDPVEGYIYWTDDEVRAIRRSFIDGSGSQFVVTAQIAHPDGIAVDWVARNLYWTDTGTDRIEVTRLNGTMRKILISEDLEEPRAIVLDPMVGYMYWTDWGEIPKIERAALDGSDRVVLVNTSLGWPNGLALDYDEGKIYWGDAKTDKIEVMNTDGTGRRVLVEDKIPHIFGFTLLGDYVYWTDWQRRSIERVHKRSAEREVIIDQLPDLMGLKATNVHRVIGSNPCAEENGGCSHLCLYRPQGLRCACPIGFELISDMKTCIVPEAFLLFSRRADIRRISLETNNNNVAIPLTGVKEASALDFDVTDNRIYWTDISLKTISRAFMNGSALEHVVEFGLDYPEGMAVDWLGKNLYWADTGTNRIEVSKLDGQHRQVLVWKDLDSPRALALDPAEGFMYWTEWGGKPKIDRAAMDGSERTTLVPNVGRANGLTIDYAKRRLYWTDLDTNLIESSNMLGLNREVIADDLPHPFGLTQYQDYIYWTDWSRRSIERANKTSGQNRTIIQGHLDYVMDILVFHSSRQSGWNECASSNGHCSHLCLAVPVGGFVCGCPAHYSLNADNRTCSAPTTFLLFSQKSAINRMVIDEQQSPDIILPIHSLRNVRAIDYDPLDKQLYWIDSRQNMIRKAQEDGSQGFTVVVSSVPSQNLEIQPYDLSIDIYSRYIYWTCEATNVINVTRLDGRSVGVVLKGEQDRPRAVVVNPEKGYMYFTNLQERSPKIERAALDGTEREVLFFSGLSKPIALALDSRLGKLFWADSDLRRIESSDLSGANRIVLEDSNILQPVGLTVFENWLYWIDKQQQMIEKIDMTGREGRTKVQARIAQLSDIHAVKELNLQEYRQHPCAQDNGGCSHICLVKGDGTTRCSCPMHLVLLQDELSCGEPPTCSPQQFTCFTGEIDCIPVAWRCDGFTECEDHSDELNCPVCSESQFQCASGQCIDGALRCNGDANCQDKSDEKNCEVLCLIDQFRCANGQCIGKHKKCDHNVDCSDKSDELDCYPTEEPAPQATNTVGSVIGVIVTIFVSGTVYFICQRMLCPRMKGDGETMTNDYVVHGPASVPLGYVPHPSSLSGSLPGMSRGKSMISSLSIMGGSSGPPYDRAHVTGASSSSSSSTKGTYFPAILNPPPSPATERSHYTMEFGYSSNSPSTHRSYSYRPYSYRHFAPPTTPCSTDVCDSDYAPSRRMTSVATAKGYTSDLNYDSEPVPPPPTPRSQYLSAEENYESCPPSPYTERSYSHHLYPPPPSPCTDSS
Source text: as §2, §3

## Dkk-1: Dickkopf-1 protein, antagonist of the Wnt pathway; expressed from human cDNA (RNA or plasmid)
[1]
  embryos displaying enlarged anterior structures (big heads): over 90%
[2]
  repression of Zmax/LRP5-mediated Wnt signaling: repressed
[3]
  repression of HBM-mediated Wnt signaling: unable to repress
[4]
  activation of lacZ reporter over the background: > 20 fold
[5]
  Dkk-mediated repression of LRP5 signaling (TCF reporter): represses
[5]; listed as Dkk1
  Dkk-mediated repression of LRP5 signaling (TCF reporter): moderate
[6]
  Dkk-mediated repression of LRP6 signaling (TCF reporter): represses
[6]; listed as Dkk1
  Dkk-mediated repression of LRP6 signaling (TCF reporter): maximal
